Counter-ions that a name gives are not always drawn.

Experiment [1] concerns the target rhTDO (recombinant human TDO) (Homo sapiens, UniProt P48775). The experiment is described as follows: Enzyme assay using rhTDO (rate of kynurenine production). It is filed as biochemical. Particulars: 2 h, read-out: rhTDO-mediated kynurenine production; for remaining activity at 10 µM: final concentration of the compound 10 μM, rate relative to reaction without compound. The procedure, abridged:
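Kynurenine output, as percent of untreated control after background subtraction, read at 490 nm with p-dimethylbenzaldehyde following TCA quench and 15 min heating at 50 °C. Reaction: rhTDO with compound, 10 min preincubation then 120 min at 37 °C, started by 20 mM tryptophan stock, in phosphate/ascorbate/methylene blue/catalase.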

The target of a further experiment is T1, TDO in A172 cells (Homo sapiens, UniProt P48775).
T1 construct: endogenous in cells; host or cells: A172 cells
Kind of experiment: TDO cell-based assay, kynurenine production in A172 cells. The conditions noted are these: A 172; final concentration of the compound 10 μM; rate relative to culture without compound. The procedure, abridged: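 A172 cells were preincubated with compound for 1 h, then given L-tryptophan (final 524 μM) for 24 h at 37 °C. Kynurenine was read at 460 nm after p-dimethylbenzaldehyde/TCA reagent, background-subtracted, and expressed as % of no-compound production.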

A further experiment addresses T2, IDO in A431 cells (Homo sapiens, UniProt P14902).
T2 construct: endogenous in cells; host or cells: A431 cells, IFN-γ stimulated
Kind of experiment: IDO cell-based assay, kynurenine production in IFN-γ stimulated A431 cells. Particulars: A-431, 24 h; final concentration of the compound 10 μM; rate relative to culture without compound. The procedure, abridged: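 A431 cells were cultured 24 h, then preincubated 1 h with compound in medium containing 178 μM L-tryptophan, and stimulated with IFN-γ (diluted to 100 ng/mL before addition) for 24 h. Kynurenine was measured by p-dimethylbenzaldehyde absorbance at 460 nm, background-subtracted, and expressed as % production versus no-compound control.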

The target in experiment [2] is rhIDO (recombinant human IDO) (Homo sapiens, UniProt P14902). The experiment is described as follows: Enzyme assay using rhIDO (rate of kynurenine production). In kind it is biochemical. The conditions noted are these: 2 h; final concentration of the compound 10 μM; rate relative to reaction without compound; read-out: rhIDO-mediated kynurenine production. In outline: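 rhIDO preincubated with compound 10 min at 37 °C in phosphate buffer with ascorbate, methylene blue and catalase; started with 2 mM tryptophan solution (stock) and run 120 min at 37 °C. Stopped with TCA and heated to convert N-formylkynurenine; kynurenine read at 490 nm after p-dimethylbenzaldehyde, background-subtracted, as % of no-compound control.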
rhIDO (recombinant human IDO), sequence (P14902 whole entry): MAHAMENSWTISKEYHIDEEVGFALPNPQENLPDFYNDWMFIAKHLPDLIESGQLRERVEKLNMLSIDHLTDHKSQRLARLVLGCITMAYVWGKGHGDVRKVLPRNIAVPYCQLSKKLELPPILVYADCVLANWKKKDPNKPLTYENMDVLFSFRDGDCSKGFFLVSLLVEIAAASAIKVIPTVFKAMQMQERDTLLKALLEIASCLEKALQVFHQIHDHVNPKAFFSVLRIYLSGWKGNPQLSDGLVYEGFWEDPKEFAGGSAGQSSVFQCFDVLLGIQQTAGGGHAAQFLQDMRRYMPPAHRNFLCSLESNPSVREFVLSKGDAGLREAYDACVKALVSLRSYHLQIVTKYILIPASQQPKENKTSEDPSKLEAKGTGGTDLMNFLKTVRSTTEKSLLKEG

T2 sequence (P14902 whole entry): as above
T1 sequence (P48775 whole entry): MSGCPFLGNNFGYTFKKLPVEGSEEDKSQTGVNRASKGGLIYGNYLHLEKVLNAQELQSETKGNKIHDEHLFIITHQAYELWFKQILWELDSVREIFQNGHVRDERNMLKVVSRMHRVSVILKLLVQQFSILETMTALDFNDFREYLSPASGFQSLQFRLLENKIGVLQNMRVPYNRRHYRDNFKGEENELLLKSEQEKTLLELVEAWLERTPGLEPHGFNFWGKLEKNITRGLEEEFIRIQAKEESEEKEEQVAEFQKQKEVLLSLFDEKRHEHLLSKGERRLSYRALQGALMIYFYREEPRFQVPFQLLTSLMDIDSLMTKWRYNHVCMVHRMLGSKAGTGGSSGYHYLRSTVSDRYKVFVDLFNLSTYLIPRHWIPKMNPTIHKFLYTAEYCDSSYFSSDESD
rhTDO (recombinant human TDO), sequence (P48775 whole entry): as above

Regarding `Fc1ccc(CN2CN=C(SCc3ccccc3CSC3=NCN(Cc4ccc(F)c(F)c4)CN3)NC2)cc1F` [Compound 43, 1,2-Bis(((5-(3,4-difluorobenzyl)-1,4,5,6-tetrahydro-1,3,5-triazin-2-yl)thio)methyl)benzene], the remaining activity at 10 µM in experiment [1] was 41%; at TDO in A172 cells it was -2%; at IDO in A431 cells it was 11%; in experiment [2], 71%.

For `Cc1ccc(C)c(CN2CN=C(SCc3ccccc3CSC3=NCN(Cc4cc(C)ccc4C)CN3)NC2)c1` [Compound 44, 1,2-Bis(((5-(2,5-dimethylbenzyl)-1,4,5,6-tetrahydro-1,3,5-triazin-2-yl)thio)methyl)benzene], the remaining activity at 10 µM in experiment [1] stood at 26%; on TDO in A172 cells, 1%; at IDO in A431 cells, 11%; in experiment [2], 50%.

Take `Fc1cccc(CN2CN=C(SCc3ccccc3CSC3=NCN(Cc4cccc(F)c4)CN3)NC2)c1` [Compound 45]: the remaining activity at 10 µM in experiment [1] was 33%; at TDO in A172 cells, 0%; at IDO in A431 cells it was 13%; in experiment [2] it was 65%.

As for `N=C(N)SCc1ccc(C(F)(F)F)cc1CSC(=N)N` [Compound 46, dihydrobromide], the remaining activity at 10 µM worked out at 14% in experiment [1], 24% at TDO in A172 cells, 10% on IDO in A431 cells and 3% in experiment [2].

For the compound `FC(F)(F)c1ccc(CSC2=NCN(CCc3ccc(Cl)c(Cl)c3)CN2)c(CSC2=NCN(CCc3ccc(Cl)c(Cl)c3)CN2)c1` [Compound 47, 6,6′-(((4-(Trifluoromethyl)-1,2-phenylene)bis(methylene))bis(sulfanediyl))bis(3-(3,4-dichlorophenethyl)-1,2,3,4-tetrahydro-1,3,5-triazine)], the remaining activity at 10 µM in experiment [1] came to 53%; at TDO in A172 cells, 45%; at IDO in A431 cells, 15%; in experiment [2], 16%.

Regarding `FC(F)(F)c1ccc(CSC2=NCN(CCc3ccccc3Cl)CN2)c(CSC2=NCN(CCc3ccccc3Cl)CN2)c1` [Compound 48, 6,6′-(((4-(Trifluoromethyl)-1,2-phenylene)bis(methylene))bis(sulfanediyl))bis(3-(2-chlorophenethyl)-1,2,3,4-tetrahydro-1,3,5-triazine)], the remaining activity at 10 µM is 73% in experiment [1], 71% at TDO in A172 cells, 63% at IDO in A431 cells and 80% in experiment [2].

For `N=C(N)SCCc1ccccc1CSC(=N)N` [Compound 51, 2-(2-(Carbamimidoylthio)ethyl)benzyl carbamimidothioate dihydrobromide], the remaining activity at 10 µM in experiment [1] was determined as 13%; on TDO in A172 cells, 25%; at IDO in A431 cells it was 23%; in experiment [2] it was 19%.

As to `Clc1ccccc1CCN1CN=C(SCc2ccc(Br)cc2CSC2=NCN(CCc3ccccc3Cl)CN2)NC1` [Compound 53, 6,6′-(((4-Bromo-1,2-phenylene)bis(methylene))bis(sulfanediyl))bis(3-(2-chlorophenethyl)-1,2,3,4-tetrahydro-1,3,5-triazine)], the remaining activity at 10 µM worked out at 19% in experiment [1], 17% at TDO in A172 cells, 5% on IDO in A431 cells and 16% in experiment [2].

Consider `Clc1ccc(CN2CN=C(SCc3ccc(Br)cc3CSC3=NCN(Cc4ccc(Cl)c(Cl)c4)CN3)NC2)cc1Cl` [Compound 54, 6,6′-(((4-Bromo-1,2-phenylene)bis(methylene))bis(sulfanediyl))bis(3-(3,4-dichlorobenzyl)-1,2,3,4-tetrahydro-1,3,5-triazine)], for which the remaining activity at 10 µM in experiment [1] was found to be 14%; at TDO in A172 cells, 6%; at IDO in A431 cells it was 4%; in experiment [2] it was 13%.

In the case of `COC(=O)c1ccccc1CSC(=N)N` [Compound 55, Methyl 2-((carbamimidoylthio)methyl)benzoate hydrochloride], the remaining activity at 10 µM in experiment [1] was found to be 111%; at TDO in A172 cells it was 121%; on IDO in A431 cells it was 73%; in experiment [2] it was 91%.

For the compound `Clc1ccc(CN2CN=C(SCc3cc(Cl)c(Cl)cc3CSC3=NCN(Cc4ccc(Cl)c(Cl)c4)CN3)NC2)cc1Cl` [Compound 56, 6,6′-(((4,5-Dichloro-1,2-phenylene)bis(methylene))bis(sulfanediyl))bis(3-(3,4-dichlorobenzyl)-1,2,3,4-tetrahydro-1,3,5-triazine)], the remaining activity at 10 µM in experiment [1] was 35%; on TDO in A172 cells it was 2%; at IDO in A431 cells, 4%; in experiment [2], 41%.

Take `Brc1ccc(CS/C(=N/C2CCCCC2)NC2CCCCC2)c(CS/C(=N/C2CCCCC2)NC2CCCCC2)c1` [Compound 57, (4-Bromo-1,2-phenylene)bis(methylene) (E,E)-bis(N,N′-dicyclohexylcarbamimidothioate) dihydrobromide]: the remaining activity at 10 µM in experiment [1] stood at 80%; at TDO in A172 cells it was 12%; on IDO in A431 cells it was 3%; in experiment [2], 83%.

For `c1ccc(CS/C(=N/C2CCCCC2)NC2CCCCC2)c(CS/C(=N/C2CCCCC2)NC2CCCCC2)c1` [Compound 58, 1,2-Phenylenebis(methylene) (E,E)-bis(N,N′-dicyclohexylcarbamimidothioate) dihydrobromide], the remaining activity at 10 µM stood at 83% in experiment [1], 9% on TDO in A172 cells, 1% at IDO in A431 cells and 73% in experiment [2].

With `NC(=O)SCc1ccccc1CS/C(N)=N/c1ccc(F)c(Cl)c1` [Compound 59, (E)-S-(2-(((N′-(3-Chloro-4-fluorophenyl)carbamimidoyl)thio)methyl)benzyl) carbamothioate hydrobromide], the remaining activity at 10 µM in experiment [1] is 1%; on TDO in A172 cells it was 4%; at IDO in A431 cells it was 1%; in experiment [2], -3%.

As to `Brc1ccc(CSC2=NCN(CCC3CCCCC3)CN2)c(CSC2=NCN(CCC3CCCCC3)CN2)c1` [Compound 60, 6,6′-(((4-Bromo-1,2-phenylene)bis(methylene))bis(sulfanediyl))bis(3-(2-cyclohexylethyl)-1,2,3,4-tetrahydro-1,3,5-triazine)], the remaining activity at 10 µM in experiment [1] is 6%; at TDO in A172 cells it was 4%; at IDO in A431 cells, 1%; in experiment [2], 6%.

As for `Clc1cc(CSC2=NCN(CCC3CCCCC3)CN2)c(CSC2=NCN(CCC3CCCCC3)CN2)cc1Cl` [Compound 61, 6,6′-(((4,5-Dichloro-1,2-phenylene)bis(methylene))bis(sulfanediyl))bis(3-(2-cyclohexylethyl)-1,2,3,4-tetrahydro-1,3,5-triazine)], the remaining activity at 10 µM in experiment [1] is 4%; on TDO in A172 cells it was -11%; on IDO in A431 cells, 1%; in experiment [2] it was 7%.

Regarding `CNC(=O)Cc1ccccc1CSC(=N)N` [Compound 62, 2-(2-(Methylamino)-2-oxoethyl)benzyl carbamimidothioate hydrobromide], the remaining activity at 10 µM in experiment [1] came to 21%; at TDO in A172 cells, 56%; on IDO in A431 cells it was 86%; in experiment [2], 58%.

Take `N/C(=N\c1ccc(F)cc1F)SCc1cc(Cl)c(Cl)cc1CS/C(N)=N/c1ccc(F)cc1F` [Compound 63, (4,5-Dichloro-1,2-phenylene)bis(methylene) (E,E)-bis(N′-(2,4-difluorophenyl)carbamimidothioate) dihydrobromide]: in experiment [1] (final concentration of the compound 3 μM (data with *)), the remaining activity at 3 µM is 16%. Also, the values for the remaining activity at 10 µM (at TDO in A172 cells; on IDO in A431 cells; in experiment [2]) were 5%, 2% and 0%, respectively.

For the compound `N=C(N)SCc1ccccc1CC(=O)NCCc1ccccc1` [Compound 64, 2-(2-Oxo-2-(phenethylamino)ethyl)benzyl carbamimidothioate hydrobromide], the remaining activity at 10 µM in experiment [1] was determined as 42%; on TDO in A172 cells, 76%; on IDO in A431 cells it was 102%; in experiment [2], 81%.

`N=C(N)SCc1ccccc1CC(=O)NCC1CCCCC1` [Compound 65, 2-(2-((Cyclohexylmethyl)amino)-2-oxoethyl)benzyl carbamimidothioate hydrobromide]: the remaining activity at 10 µM worked out at 76% in experiment [1], 94% at TDO in A172 cells, 104% at IDO in A431 cells and 89% in experiment [2].

These data come from patent US12209079B2 (GENERAL INCORPORATED ASSOCIATION PHARMA VALLEY PROJECT …, priority 2017, dated 2025).
